Consider five molecules from patent US9108929B2, “Quinazoline based EGFR inhibitors” (Curis, Inc., priority 2006, dated 2015).

The test system of series [1] is HDAC (HeLa nuclear extract). Kind of series: HDAC fluorimetric assay (HDAC enzymatic activity). The format is biochemical. The protocol:
HDAC inhibitors are screened using an HDAC fluorimetric assay kit (AK-500, Biomol, Plymouth Meeting, Pa.).
Each assay is setup as follows: Defrost all kit components and keep on ice until use. Dilute HeLa nuclear extract 1:29 in Assay Buffer (50 mM Tris/Cl, pH 8.0, 137 mM NaCl, 2.7 mM KCl, 1 mM MgCl2). Prepare dilutions of Trichostatin A (TSA, positive control) and test compounds in assay buffer (5× of final concentration). Dilute Fluor de Lys™ Substrate in assay buffer to 100 uM (50 fold=2× final). Dilute Fluor de Lys™ developer concentrate 20-fold (e.g. 50 μl plus 950 μl Assay Buffer) in cold assay buffer. Second, dilute the 0.2 mM Trichostatin A 100-fold in the 1× Developer (e.g. 10 μl in 1 ml; final Trichostatin A concentration in the 1× Developer=2 μM; final concentration after addition to HDAC/Substrate reaction=1 μM). Add Assay buffer, diluted trichostatin A or test inhibitor to appropriate wells of the microtiter plate. Add diluted HeLa extract or other HDAC sample to all wells except for negative controls. Allow diluted Fluor de Lys™ Substrate and the samples in the microtiter plate to equilibrate to assay temperature (e.g. 25 or 37° C. Initiate HDAC reactions by adding diluted substrate (25 μl) to each well and mixing thoroughly.
Allow HDAC reactions to proceed for 1 hour and then stopped them by addition of Fluor de Lys™ Developer (50 μl). Incubate plate at room temperature (25° C.) for 10-15 min. Read samples in a microtiter-plate reading fluorimeter capable of excitation at a wavelength in the range 350-380 nm and detection of emitted light in the range 440-460 nm.

Series [2] addresses HER2/ErbB2 (Homo sapiens, UniProt P04626). Kind of series: HER2/ErbB2 inhibition. The format is biochemical.
Series [3] deals with T1, human EGFR (His672-Ala1210) (Homo sapiens, UniProt P00533).
T1 construct: a construct expressing human EGFR (His672-Ala1210); GST (N); purchased Cell Signaling Technologies; host or cells: baculovirus expression system
T1 sequence (P00533 672-1210): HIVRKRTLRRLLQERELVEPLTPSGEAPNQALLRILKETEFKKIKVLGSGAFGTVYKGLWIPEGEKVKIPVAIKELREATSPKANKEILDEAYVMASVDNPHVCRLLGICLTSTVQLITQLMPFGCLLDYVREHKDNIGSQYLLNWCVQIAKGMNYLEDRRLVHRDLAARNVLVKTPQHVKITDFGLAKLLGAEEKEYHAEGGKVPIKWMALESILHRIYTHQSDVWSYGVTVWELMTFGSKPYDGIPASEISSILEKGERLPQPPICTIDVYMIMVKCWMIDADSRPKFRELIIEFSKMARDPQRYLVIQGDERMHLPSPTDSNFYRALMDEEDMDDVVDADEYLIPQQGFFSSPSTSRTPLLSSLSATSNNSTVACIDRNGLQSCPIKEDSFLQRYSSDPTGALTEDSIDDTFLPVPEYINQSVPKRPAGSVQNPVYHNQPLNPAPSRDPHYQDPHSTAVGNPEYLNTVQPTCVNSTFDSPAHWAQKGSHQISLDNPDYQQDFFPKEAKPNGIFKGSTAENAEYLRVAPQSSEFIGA
Kind of series: EGFR kinase inhibition assay (HTScan EGF Receptor Kinase Assay Kit). The format is biochemical. The protocol: The ability of compounds to inhibit receptor kinase (EGFR) activity can be assayed using HTSCAN™ EGF Receptor Kinase Assay Kits (Cell Signaling Technologies, Danvers, Mass.). […] The protein is purified by one-step affinity chromatography using glutathione-agarose.
Immediately transfer enzyme from −80° C. to ice. Allow enzyme to thaw on ice. […] Return immediately to ice. […] Incubate reaction plate at room temperature for 30 minutes. […] Add 100 μl/well primary antibody. Incubate at room temperature for 60 minutes. […] Add 100 μl/well diluted antibody. Incubate at room temperature for 30 minutes. Wash five times with 200 μl/well PBS/T. Add 100 μl/well DELFIA® Enhancement Solution. Incubate at room temperature for 5 minutes.

Sequence of HER2/ErbB2 (P04626 23-1255): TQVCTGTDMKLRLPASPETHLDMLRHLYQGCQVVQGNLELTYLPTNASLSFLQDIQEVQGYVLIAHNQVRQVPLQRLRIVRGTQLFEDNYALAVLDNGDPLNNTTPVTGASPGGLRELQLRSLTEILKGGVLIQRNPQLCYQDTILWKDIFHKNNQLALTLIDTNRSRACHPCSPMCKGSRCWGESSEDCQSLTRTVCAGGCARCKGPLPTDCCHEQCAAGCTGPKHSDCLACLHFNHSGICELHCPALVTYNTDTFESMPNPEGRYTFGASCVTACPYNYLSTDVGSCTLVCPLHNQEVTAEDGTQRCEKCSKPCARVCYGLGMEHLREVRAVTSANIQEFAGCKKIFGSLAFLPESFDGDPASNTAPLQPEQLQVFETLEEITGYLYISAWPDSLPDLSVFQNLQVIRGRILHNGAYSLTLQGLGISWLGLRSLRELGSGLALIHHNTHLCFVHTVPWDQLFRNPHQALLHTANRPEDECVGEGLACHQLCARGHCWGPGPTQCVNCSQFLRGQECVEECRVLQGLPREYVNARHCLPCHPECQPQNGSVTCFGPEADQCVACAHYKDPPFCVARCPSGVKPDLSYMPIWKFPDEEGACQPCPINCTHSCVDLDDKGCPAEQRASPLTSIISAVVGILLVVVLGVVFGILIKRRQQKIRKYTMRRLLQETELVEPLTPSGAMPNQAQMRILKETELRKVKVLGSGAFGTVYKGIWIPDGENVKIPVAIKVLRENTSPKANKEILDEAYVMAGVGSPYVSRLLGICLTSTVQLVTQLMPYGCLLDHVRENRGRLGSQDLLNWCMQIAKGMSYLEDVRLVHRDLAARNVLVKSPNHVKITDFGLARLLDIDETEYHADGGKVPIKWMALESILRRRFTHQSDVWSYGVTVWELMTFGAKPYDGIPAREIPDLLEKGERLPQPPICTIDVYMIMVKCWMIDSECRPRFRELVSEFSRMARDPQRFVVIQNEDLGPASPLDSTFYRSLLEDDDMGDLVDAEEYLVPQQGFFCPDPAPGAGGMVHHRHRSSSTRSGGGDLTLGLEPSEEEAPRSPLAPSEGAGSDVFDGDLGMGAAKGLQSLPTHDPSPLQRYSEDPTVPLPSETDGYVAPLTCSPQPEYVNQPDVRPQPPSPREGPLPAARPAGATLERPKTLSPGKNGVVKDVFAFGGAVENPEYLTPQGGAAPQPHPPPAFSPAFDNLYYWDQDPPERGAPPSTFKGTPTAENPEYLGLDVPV

For orientation: IC50 means the concentration that gives 50% inhibition. `C#Cc1cc(Nc2ncnc3cc(OC)c(OCCCCC(=O)O)cc23)ccc1O` yielded an IC50 in series [1] of over 10000 nM.

As usually defined, the melting point is the temperature, or range, at which the solid turns liquid. In the case of `CCOC(=O)COc1ccc2ncnc(Nc3ccc(F)c(Cl)c3)c2c1` [Compound 0210-13, Ethyl 2-(4-(3-chloro-4-fluorophenylamino)quinazolin-6-yloxy)acetate], the melting point fell in the range of 161 to 163 °C.

In the case of `C#Cc1cccc(Nc2ncnc3cc(OC)c(OCCCCCCC(=O)O)cc23)c1`, the IC50 in series [2] was 100 to 1000 nM; in series [1] it was over 10000 nM; in series [3], under 100 nM.

Regarding `C#Cc1cc(Nc2ncnc3cc(OC)c(OCCCCCCC(=O)O)cc23)ccc1O`, the values for the IC50 in series [1] and in series [3] were over 10000 nM and under 100 nM, respectively.

`C#Cc1cccc(Nc2ncnc3cc(OC)c(OCCCCC(=O)O)cc23)c1` showed a concentration for half-maximal inhibition (IC50) in series [3] of under 100 nM.
